Results published in patent US20250101041A1, “POSITIVE ALLOSTERIC MODULATORS OF THE MUSCARINIC ACETYLCHOLINE RECEPTOR M4” (Vanderbilt University, priority 2022, published 2025).

Molecular target: T1, human mAChR M4 (Homo sapiens, UniProt P08173)
T1 construct: expressed in transfected cells; host or cells: CHO-K1 (American Type Culture Collection), stably expressing hM4 and Gqi5
T1 sequence (P08173 1-479): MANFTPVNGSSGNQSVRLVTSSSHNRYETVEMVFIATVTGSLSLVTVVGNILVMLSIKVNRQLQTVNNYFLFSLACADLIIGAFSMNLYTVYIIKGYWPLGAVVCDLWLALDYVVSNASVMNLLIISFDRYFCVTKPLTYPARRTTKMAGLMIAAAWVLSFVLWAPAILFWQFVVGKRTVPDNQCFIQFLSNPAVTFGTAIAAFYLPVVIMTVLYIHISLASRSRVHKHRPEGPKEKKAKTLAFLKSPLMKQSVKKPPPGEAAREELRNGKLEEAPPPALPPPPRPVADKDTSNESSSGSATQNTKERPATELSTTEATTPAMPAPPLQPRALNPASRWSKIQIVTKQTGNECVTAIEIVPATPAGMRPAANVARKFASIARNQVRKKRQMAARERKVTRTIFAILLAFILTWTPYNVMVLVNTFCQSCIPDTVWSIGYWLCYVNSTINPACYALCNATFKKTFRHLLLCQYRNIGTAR
Assay: mAChR M4 cell-based functional assay: calcium mobilization (Fluo-4, FDSS), potentiation of EC20 acetylcholine response in hM4-Gqi5 CHO-K1 cells
Conditions: human M4; for Emax at 30 µM: CHO-K1, % ACh maximum at 30 μM; for EC50: potentiation of EC20 acetylcholine response, calcium mobilization
Summary of the method: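 CHO-K1 cells stably co-expressing human M4 and chimeric Gqi5, loaded with Fluo-4 AM (50 min, 37 °C). Compounds in 11-point 1:3 series added first; EC20 acetylcholine added at 144 s and again at 230 s. Calcium read on FDSS at 1 Hz; EC50 and Emax from four-parameter logistic fit of potentiated EC20 response.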

Row | SMILES | Emax at 30 µM | EC50
1 | Cc1cc(=O)n2nc(N3CCc4ncc(-c5cnn(C6CCOCC6)c5)cc4C3)c(C)c(C)c2n1 [Compound 1-182, 2,8,9-trimethyl-7-(3-(1-(tetrahydro-2H-pyran-4-yl)-1H-pyrazol-4-yl)-7,8-dihydro-1,6-naphthyridin-6(5H)-yl)-4H-pyrimido[1,2-b]pyridazin-4-one] | 66% | 1410 nM
2 | Cc1cc(=O)n2nc(N3CCc4ncc(-c5cnn(C6CC6)c5)cc4C3)c(C)c(C)c2n1 [Compound 1-183, 7-(3-(1-cyclopropyl-1H-pyrazol-4-yl)-7,8-dihydro-1,6-naphthyridin-6(5H)-yl)-2,8,9-trimethyl-4H-pyrimido[1,2-b]pyridazin-4-one] | 79% | 582 nM
3 | Cc1cc(=O)n2nc(N3CCc4ncc(-c5cnn(CC(F)(F)F)c5)cc4C3)c(C)c(C)c2n1 [Compound 1-184, 2,8,9-trimethyl-7-(3-(1-(2,2,2-trifluoroethyl)-1H-pyrazol-4-yl)-7,8-dihydro-1,6-naphthyridin-6(5H)-yl)-4H-pyrimido[1,2-b]pyridazin-4-one] | 80% | 1260 nM
4 | Cc1cc(=O)n2nc(N3CCc4ncc(-c5cnn(C)c5C)cc4C3)c(C)c(C)c2n1 [Compound 1-185, 7-(3-(1,5-dimethyl-1H-pyrazol-4-yl)-7,8-dihydro-1,6-naphthyridin-6(5H)-yl)-2,8,9-trimethyl-4H-pyrimido[1,2-b]pyridazin-4-one] | 86% | 752 nM
5 | Cc1cc(Cl)c(-c2cnc3c(c2)CN(c2nn4c(=O)cc(C(F)F)nc4c(C)c2C)CC3)cn1 [Compound 1-187, 7-(3-(4-chloro-6-methylpyridin-3-yl)-7,8-dihydro-1,6-naphthyridin-6(5H)-yl)-2-(difluoromethyl)-8,9-dimethyl-4H-pyrimido[1,2-b]pyridazin-4-one] | 95% | 109 nM
6 | COc1cc(C)c(-c2cnc3c(c2)CN(c2nn4c(=O)cc(C(F)F)nc4c(C)c2C)CC3)cn1 [Compound 1-188, 2-(difluoromethyl)-7-(3-(6-methoxy-4-methylpyridin-3-yl)-7,8-dihydro-1,6-naphthyridin-6(5H)-yl)-8,9-dimethyl-4H-pyrimido[1,2-b]pyridazin-4-one] | 91% | 103 nM
7 | Cc1c(N2CCc3ncc(-c4cnccc4C(F)(F)F)cc3C2)nn2c(=O)cc(C(F)F)nc2c1C [Compound 1-189, 2-(difluoromethyl)-8,9-dimethyl-7-(3-(4-(trifluoromethyl)pyridin-3-yl)-7,8-dihydro-1,6-naphthyridin-6(5H)-yl)-4H-pyrimido[1,2-b]pyridazin-4-one] | 48% | 515 nM
8 | COc1ccncc1-c1cnc2c(c1)CN(c1nn3c(=O)cc(C(F)F)nc3c(C)c1C)CC2 [Compound 1-190, 2-(difluoromethyl)-7-(3-(4-methoxypyridin-3-yl)-7,8-dihydro-1,6-naphthyridin-6(5H)-yl)-8,9-dimethyl-4H-pyrimido[1,2-b]pyridazin-4-one] | 77% | 156 nM
9 | Cc1c(N2CCc3ncc(-c4cnn(C5CCOCC5)c4)cc3C2)nn2c(=O)ccnc2c1C [Compound 1-192, 8,9-dimethyl-7-(3-(1-(tetrahydro-2H-pyran-4-yl)-1H-pyrazol-4-yl)-7,8-dihydro-1,6-naphthyridin-6(5H)-yl)-4H-pyrimido[1,2-b]pyridazin-4-one] | 64% | 139 nM
10 | Cc1c(N2CCc3ncc(-c4cnn(-c5ccccc5F)c4)cc3C2)nn2c(=O)ccnc2c1C [Compound 1-193, 7-(3-(1-(2-fluorophenyl)-1H-pyrazol-4-yl)-7,8-dihydro-1,6-naphthyridin-6(5H)-yl)-8,9-dimethyl-4H-pyrimido[1,2-b]pyridazin-4-one] | 71% | 783 nM
11 | Cc1ccc(F)cc1-c1cnc2c(c1)CN(c1nn3c(=O)ccnc3c(C)c1C)CC2 [Compound 1-194, 7-(3-(5-fluoro-2-methylphenyl)-7,8-dihydro-1,6-naphthyridin-6(5H)-yl)-8,9-dimethyl-4H-pyrimido[1,2-b]pyridazin-4-one] | 83% | 93 nM
12 | Cc1cc2nc(C(C)(C)O)cc(=O)n2nc1N1CCc2ncc(C(F)(F)F)cc2C1 [Compound 1-195, 2-(2-hydroxypropan-2-yl)-8-methyl-7-(3-(trifluoromethyl)-7,8-dihydro-1,6-naphthyridin-6(5H)-yl)-4H-pyrimido[1,2-b] pyridazin-4-one] | 82% | 185 nM
13 | Cc1cc(=O)n2nc(N3CCc4ncc(-c5cnc(Cl)cc5C)cc4C3)c(C)c(C)c2n1 [Compound 1-197, 7-(3-(6-chloro-4-methylpyridin-3-yl)-7,8-dihydro-1,6-naphthyridin-6(5H)-yl)-2,8,9-trimethyl-4H-pyrimido[1,2-b]pyridazin-4-one] | 81% | 275 nM
14 | COc1cc(C)c(-c2cnc3c(c2)CN(c2nn4c(=O)cc(C)nc4c(C)c2C)CC3)cn1 [Compound 1-198, 7-(3-(6-methoxy-4-methylpyridin-3-yl)-7,8-dihydro-1,6-naphthyridin-6(5H)-yl)-2,8,9-trimethyl-4H-pyrimido[1,2-b]pyridazin-4-one] | 83% | 1920 nM
15 | Cc1cc(=O)n2nc(N3CCc4ncc(-c5cc(F)c(F)cc5F)cc4C3)c(C)c(C)c2n1 [Compound 1-200, 2,8,9-trimethyl-7-(3-(2,4,5-trifluorophenyl)-7,8-dihydro-1,6-naphthyridin-6(5H)-yl)-4H-pyrimido[1,2-b] pyridazin-4-one] | 84% | 531 nM
16 | Cc1cc(=O)n2nc(N3CCc4ncc(-c5cnc(F)cc5C)cc4C3)c(C)c(C)c2n1 [Compound 1-202, 7-(3-(6-fluoro-4-methylpyridin-3-yl)-7,8-dihydro-1,6-naphthyridin-6(5H)-yl)-2,8,9-trimethyl-4H-pyrimido[1,2-b]pyridazin-4-one] | 91% | 104 nM
17 | Cc1cc(=O)n2nc(N3CCc4ncc(-c5ccc(C)c(F)c5)cc4C3)c(C)cc2n1 [Compound 1-206, 7-(3-(3-fluoro-4-methylphenyl)-7,8-dihydro-1,6-naphthyridin-6(5H)-yl)-2,8-dimethyl-4H-pyrimido[1,2-b]pyridazin-4-one] | 71% | 409 nM

The remaining lines, values ahead:

Row | Emax at 30 µM | EC50 | SMILES
18 | 84% | 460 nM | COc1ccc(-c2cnc3c(c2)CN(c2nn4c(=O)cc(C)nc4c(C)c2C)CC3)cn1 [Compound 1-186, 7-(3-(6-methoxypyridin-3-yl)-7,8-dihydro-1,6-naphthyridin-6(5H)-yl)-2,8,9-trimethyl-4H-pyrimido[1,2-b]pyridazin-4-one]
19 | 84% | 2400 nM | Cc1ccc(-c2cnc3c(c2)CN(c2nn4c(=O)cc(C(F)F)nc4c(C)c2C)CC3)cc1F [Compound 1-191, 2-(difluoromethyl)-7-(3-(3-fluoro-4-methylphenyl)-7,8-dihydro-1,6-naphthyridin-6(5H)-yl)-8,9-dimethyl-4H-pyrimido[1,2-b]pyridazin-4-one]
20 | 80% | 1130 nM | Cc1cc(=O)n2nc(N3CCc4ncc(-c5ccc(C)c(F)c5)cc4C3)c(C)c(C)c2n1 [Compound 1-196, 7-(3-(3-fluoro-4-methylphenyl)-7,8-dihydro-1,6-naphthyridin-6(5H)-yl)-2,8,9-trimethyl-4H-pyrimido[1,2-b]pyridazin-4-one]
21 | 74% | 526 nM | COc1cncc(-c2cnc3c(c2)CN(c2nn4c(=O)cc(C)nc4c(C)c2C)CC3)c1 [Compound 1-199, 7-(3-(5-methoxypyridin-3-yl)-7,8-dihydro-1,6-naphthyridin-6(5H)-yl)-2,8,9-trimethyl-4H-pyrimido[1,2-b]pyridazin-4-one]
22 | 86% | 603 nM | COc1ccc(-c2cnc3c(c2)CN(c2nn4c(=O)cc(C)nc4c(C)c2C)CC3)cc1F [Compound 1-201, 7-(3-(3-fluoro-4-methoxyphenyl)-7,8-dihydro-1,6-naphthyridin-6(5H)-yl)-2,8,9-trimethyl-4H-pyrimido[1,2-b]pyridazin-4-one]
23 | 80% | 417 nM | Cc1cc(=O)n2nc(N3CCc4ncc(-c5cccc(F)c5)cc4C3)c(C)c(C)c2n1 [Compound 1-203, 7-(3-(3-fluorophenyl)-7,8-dihydro-1,6-naphthyridin-6(5H)-yl)-2,8,9-trimethyl-4H-pyrimido[1,2-b]pyridazin-4-one]
24 | 92% | 102 nM | Cc1cc(=O)n2nc(N3CCc4ncc(-c5ccc(F)nc5)cc4C3)c(C)c(C)c2n1 [Compound 1-204, 7-(3-(6-fluoropyridin-3-yl)-7,8-dihydro-1,6-naphthyridin-6(5H)-yl)-2,8,9-trimethyl-4H-pyrimido[1,2-b]pyridazin-4-one]
25 | 81% | 1240 nM | Cc1cc(=O)n2nc(N3CCc4ncc(-c5ccc(F)c(F)c5)cc4C3)c(C)c(C)c2n1 [Compound 1-205, 7-(3-(3,4-difluorophenyl)-7,8-dihydro-1,6-naphthyridin-6(5H)-yl)-2,8,9-trimethyl-4H-pyrimido[1,2-b]pyridazin-4-one]
